Legend:
[1] = biological target: T1, N-type calcium channel (NTCC) (Homo sapiens, UniProt Q00975); assay: FLIPR calcium mobilization assay for N-type calcium channel; assay type: cell-based; details: calcium mobilization in vitro assay; differentiated IMR32 cells
T1 construct: host or cells: IMR32 cells differentiated with dibutyryl cAMP and bromodeoxyuridine
Method: Unless noted otherwise, cell culture reagents were purchased from Mediatech of Herndon, Md. IMR32 cells (American Type Culture Collection, ATCC, Manassas, Va.) were routinely cultured in growth medium consisting of minimum essential medium containing 10% fetal bovine serum (FBS, Hyclone, Logan, Utah), 100 U/mL penicillin, 100 μg/mL streptomycin, 2 mM L-glutamine, 1 mM sodium pyruvate, and 1× MEM non-essential amino acids. 80-90% confluent flasks of cells were differentiated using the following differentiation medium: Growth medium plus 1 mM dibutyryl cyclic AMP (Sigma, St. Louis, Mo.), and 2.5 μM bromodeoxyuridine (Sigma). Cells were differentiated for 8 days by replacing differentiation medium every 2-3 days.
FLIPR Calcium Mobilization Assay for N-Type Calcium Channel.
One day prior to performing this assay, differentiated IMR32 cells were treated with 1× CellStripper, and seeded on poly-D-lysine-coated 96-well clear-bottom black plates (Becton Dickinson, Franklin Lakes, N.J.) at 200,000 cells/well. On the day of the assay, the cell plates were washed with IMR32 buffer (127 mM NaCl, 1 mM KCl, 2 mM MgCl2, 700 μM NaH2PO4, 5 mM CaCl2, 5 mM NaHCO3, 8 mM HEPES, 10 mM glucose, pH 7.4), then pre-stimulated with KCl and loaded as follows: 0.05 mL of IMR32 buffer, 0.05 mL of each compound tested diluted in IMR32 buffer containing 20 μM nitrendipine (Sigma), and 0.1 mL KCl dissolved in IMR32 buffer, plus Fluo-4 were added (3 μM final concentration, Molecular Probes, Eugene, Oreg.). Final test compound concentrations ranged from about 846 pM to about 17 μM, final nitrendipine concentration was 5 μM, and final KCl concentration was 90 mM. After 1 hour, the cells were washed twice with 0.05 mL of each compound is tested in nitrendipine-containing IMR32 buffer (no KCl or Fluo-4), and then replaced with 0.1 mL of each compound tested in nitrendipine-containing IMR32 buffer. Plates were then transferred to a Fluorimetric Imaging Plate Reader (FLIPR^96, Molecular Devices, Inc., Sunnyvale, Calif.) for assay. The FLIPR measured basal Fluo-4 fluorescence for 315 seconds (i.e., 5 minutes and 15 seconds), then added 0.1 mL KCl agonist dissolved in IMR32 buffer and measured fluorescence for another 45 seconds. Final test compound concentrations on the cells after FLIPR read ranged from about 846 pM to about 17 μM, final nitrendipine concentration was 5 μM, and final KCl concentration was 90 mM. Data were collected over the entire time course and analyzed using Excel, Graph Pad Prism (version 3.02, Graph Pad, San Diego, Calif.), or an in-house non-linear regression analysis software.

[2] = biological target: T2, recombinant rat L-type calcium channel (LTCC) subunits (α1c, α2δ, and β1) (Rattus norvegicus, UniProt P22002); assay: FLIPR calcium mobilization assay for L-type calcium channel; assay type: cell-based; details: calcium mobilization in vitro assay; HEK293 cells expressing rat LTCC
T2 construct: expressed in transfected cells
T2 sequence (P22002 whole entry): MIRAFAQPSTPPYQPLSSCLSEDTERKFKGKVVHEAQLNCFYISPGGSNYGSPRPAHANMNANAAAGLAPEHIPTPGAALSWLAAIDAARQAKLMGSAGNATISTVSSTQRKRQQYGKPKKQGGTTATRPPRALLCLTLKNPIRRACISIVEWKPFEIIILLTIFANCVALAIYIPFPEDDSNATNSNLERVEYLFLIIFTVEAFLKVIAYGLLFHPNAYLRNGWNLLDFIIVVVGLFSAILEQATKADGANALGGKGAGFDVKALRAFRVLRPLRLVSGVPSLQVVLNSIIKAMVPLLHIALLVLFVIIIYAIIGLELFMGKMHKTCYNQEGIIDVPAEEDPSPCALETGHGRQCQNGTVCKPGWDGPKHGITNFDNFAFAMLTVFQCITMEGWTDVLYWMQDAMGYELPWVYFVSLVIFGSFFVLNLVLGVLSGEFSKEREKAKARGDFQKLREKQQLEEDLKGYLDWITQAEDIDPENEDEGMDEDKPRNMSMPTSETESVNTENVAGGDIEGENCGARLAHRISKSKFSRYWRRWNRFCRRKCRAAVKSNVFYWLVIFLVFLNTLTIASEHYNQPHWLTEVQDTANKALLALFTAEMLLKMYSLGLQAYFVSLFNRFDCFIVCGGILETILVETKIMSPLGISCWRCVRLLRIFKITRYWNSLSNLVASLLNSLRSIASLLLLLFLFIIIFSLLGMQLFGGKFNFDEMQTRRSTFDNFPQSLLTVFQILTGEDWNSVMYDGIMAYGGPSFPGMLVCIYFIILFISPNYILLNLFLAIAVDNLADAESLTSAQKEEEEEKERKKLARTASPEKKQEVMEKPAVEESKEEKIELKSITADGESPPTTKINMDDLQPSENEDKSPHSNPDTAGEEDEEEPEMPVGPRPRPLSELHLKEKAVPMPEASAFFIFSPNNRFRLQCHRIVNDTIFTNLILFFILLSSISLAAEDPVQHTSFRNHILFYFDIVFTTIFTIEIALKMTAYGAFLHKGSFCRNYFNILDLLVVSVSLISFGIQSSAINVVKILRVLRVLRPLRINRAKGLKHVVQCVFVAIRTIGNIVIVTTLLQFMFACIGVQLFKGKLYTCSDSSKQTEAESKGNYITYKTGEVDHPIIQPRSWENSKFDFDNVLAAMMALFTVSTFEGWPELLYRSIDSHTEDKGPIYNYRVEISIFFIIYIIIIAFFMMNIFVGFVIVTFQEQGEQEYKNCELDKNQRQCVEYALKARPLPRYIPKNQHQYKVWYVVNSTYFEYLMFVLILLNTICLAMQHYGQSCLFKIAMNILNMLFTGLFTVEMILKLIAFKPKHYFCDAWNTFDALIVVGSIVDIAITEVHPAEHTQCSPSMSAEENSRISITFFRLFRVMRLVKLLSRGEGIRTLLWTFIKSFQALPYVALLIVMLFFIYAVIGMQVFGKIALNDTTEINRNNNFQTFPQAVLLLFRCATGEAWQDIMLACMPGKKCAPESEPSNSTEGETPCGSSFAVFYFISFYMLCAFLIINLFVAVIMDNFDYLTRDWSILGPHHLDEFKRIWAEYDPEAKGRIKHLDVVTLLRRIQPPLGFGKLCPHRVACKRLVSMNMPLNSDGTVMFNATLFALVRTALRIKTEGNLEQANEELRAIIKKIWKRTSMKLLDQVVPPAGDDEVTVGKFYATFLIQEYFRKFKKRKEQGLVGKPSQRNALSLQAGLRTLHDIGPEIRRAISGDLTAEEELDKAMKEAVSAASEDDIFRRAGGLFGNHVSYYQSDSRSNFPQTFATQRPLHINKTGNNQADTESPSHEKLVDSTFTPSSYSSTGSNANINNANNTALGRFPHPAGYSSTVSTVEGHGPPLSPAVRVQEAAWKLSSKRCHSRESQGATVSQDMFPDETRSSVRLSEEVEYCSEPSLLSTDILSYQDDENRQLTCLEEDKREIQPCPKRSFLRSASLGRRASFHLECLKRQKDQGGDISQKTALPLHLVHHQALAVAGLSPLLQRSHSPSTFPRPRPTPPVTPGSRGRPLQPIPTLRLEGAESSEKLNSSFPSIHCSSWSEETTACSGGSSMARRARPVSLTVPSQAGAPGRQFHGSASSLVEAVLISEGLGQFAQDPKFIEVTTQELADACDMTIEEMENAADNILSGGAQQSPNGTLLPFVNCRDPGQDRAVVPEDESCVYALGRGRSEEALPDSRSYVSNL
T2 sequence (P54290 25-944 partner limits assumed): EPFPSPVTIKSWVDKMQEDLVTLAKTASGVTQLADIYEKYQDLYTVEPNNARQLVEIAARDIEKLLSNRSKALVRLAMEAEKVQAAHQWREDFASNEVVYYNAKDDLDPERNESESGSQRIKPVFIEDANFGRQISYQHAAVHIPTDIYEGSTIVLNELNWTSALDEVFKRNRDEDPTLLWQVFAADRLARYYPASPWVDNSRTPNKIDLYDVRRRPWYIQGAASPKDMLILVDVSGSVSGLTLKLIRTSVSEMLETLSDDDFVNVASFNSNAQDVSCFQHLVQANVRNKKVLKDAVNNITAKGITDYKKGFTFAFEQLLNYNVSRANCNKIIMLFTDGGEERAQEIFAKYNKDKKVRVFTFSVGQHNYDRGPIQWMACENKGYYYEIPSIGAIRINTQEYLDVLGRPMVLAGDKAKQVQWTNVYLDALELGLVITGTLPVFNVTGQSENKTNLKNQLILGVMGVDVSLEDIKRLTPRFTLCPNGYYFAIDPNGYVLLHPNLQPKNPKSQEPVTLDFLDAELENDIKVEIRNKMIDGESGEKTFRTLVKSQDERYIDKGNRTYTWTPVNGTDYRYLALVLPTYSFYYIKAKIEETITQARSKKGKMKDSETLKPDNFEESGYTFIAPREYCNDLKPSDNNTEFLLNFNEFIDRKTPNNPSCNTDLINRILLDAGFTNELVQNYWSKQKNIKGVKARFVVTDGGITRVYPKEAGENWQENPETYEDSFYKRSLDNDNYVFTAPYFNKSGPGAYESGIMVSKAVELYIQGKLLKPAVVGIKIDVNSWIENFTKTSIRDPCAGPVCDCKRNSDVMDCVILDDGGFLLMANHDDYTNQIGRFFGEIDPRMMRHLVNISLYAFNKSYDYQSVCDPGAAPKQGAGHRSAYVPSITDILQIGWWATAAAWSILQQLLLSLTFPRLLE
T2 sequence (P54290 945-1091 partner limits assumed): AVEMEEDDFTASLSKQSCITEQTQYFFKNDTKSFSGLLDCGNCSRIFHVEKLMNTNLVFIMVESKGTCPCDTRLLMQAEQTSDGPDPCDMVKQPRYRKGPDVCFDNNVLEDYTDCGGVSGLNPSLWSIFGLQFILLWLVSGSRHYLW
T2 sequence (P54283 whole entry partner): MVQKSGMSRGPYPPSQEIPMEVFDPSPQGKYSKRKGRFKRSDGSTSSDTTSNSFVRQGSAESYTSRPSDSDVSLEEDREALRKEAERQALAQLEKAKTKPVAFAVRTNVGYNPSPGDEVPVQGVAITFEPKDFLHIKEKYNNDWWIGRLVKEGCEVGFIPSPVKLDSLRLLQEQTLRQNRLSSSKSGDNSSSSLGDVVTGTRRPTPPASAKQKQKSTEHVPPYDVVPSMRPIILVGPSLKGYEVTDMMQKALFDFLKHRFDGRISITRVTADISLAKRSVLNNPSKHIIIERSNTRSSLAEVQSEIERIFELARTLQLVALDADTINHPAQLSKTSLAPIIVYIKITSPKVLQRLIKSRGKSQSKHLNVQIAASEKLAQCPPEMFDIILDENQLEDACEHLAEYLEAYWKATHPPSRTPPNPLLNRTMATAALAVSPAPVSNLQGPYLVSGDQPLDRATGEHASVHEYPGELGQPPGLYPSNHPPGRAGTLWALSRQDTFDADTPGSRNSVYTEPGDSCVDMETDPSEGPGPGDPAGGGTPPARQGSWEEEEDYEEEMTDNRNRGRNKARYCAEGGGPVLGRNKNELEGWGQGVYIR
Method: Recombinant human embryonal kidney cells (HEK293, ATCC) stably transfected with either N-type calcium channel (NTCC) subunits (α1b, α2δ, and ⊖3) or L-type calcium channel (LTCC) subunits (α1, α2δ, and β1) were routinely cultured in growth medium consisting of Dulbecco's Modified Eagles Medium containing 10% FBS, 100 U/mL penicillin, 100 μg/mL streptomycin, 4 mM L-glutamine, 500 μg/mL geneticin (G418), 20 μg/mL Blasticidin S (InVivogen, San Diego, Calif.) and 500 μg/mL zeocin (InVivogen).
FLIPR Calcium Mobilization Assay for L-Type Calcium Channel.
One day prior to performing this assay, HEK293 cells stably expressing recombinant rat L-type calcium channel (LTCC) subunits (α1c, α2δ, and β1) were trypsinized, then seeded on poly-D-lysine-coated 96-well clear-bottom black plates (Becton Dickinson, Franklin Lakes, N.J.) at 75,000 cells/well. On the day of the assay, the plates were washed with LTCC wash buffer (127 mM NaCl, 2 mM MgCl2, 700 μM NaH2PO4, 5 mM CaCl2, 5 mM NaHCO3, 8 mM HEPES, 10 mM glucose, pH 7.4), then loaded with 0.1 mL of LTCC wash buffer containing Fluo-4 (3 μM final concentration, Molecular Probes, Eugene, Oreg.). After 1 hour, the cells were washed with 0.1 mL LTCC wash buffer and resuspended in 0.05 mL LTCC assay buffer (same composition as LTCC wash buffer). Plates were then transferred to a FLIPR^96 for assay. The FLIPR measured basal Fluo-4 fluorescence for 15 seconds, then is added 0.05 mL of each compound tested diluted in LTCC assay buffer at final concentrations ranging from about 846 pM to about 17 μM. Fluo-4 fluorescence was then measured for 5 minutes. 0.1 mL KCl agonist dissolved in LTCC assay buffer was then added to the cells to produce a final concentration of 90 mM KCl, and fluorescence was measured for another 45 seconds. Data were collected over the entire time course and analyzed using Excel, Graph Pad Prism, or an in-house regression analysis software.

## O=C(CN1CCC(N(C2CC2)S(=O)(=O)c2cccc(C(F)(F)F)c2)CC1)Nc1ccc(C(F)(F)F)cc1 [Compound 55, 2-{4-[Cyclopropyl-(3-trifluoromethylbenzenesulfonyl)amino]-piperidin-1-yl}-N-(4-trifluoromethylphenyl)acetamide]
[1]
  IC50: 720 nM
[2]
  IC50: > 20000 nM

## Cc1ccccc1NCCC(=O)N1CCC(N(C(C)C)S(=O)(=O)c2cccc(C(F)(F)F)c2)CC1 [N-isopropyl-N-[1-(3-o-tolylamino-propionyl)-piperidin-4-yl]-3-trifluoromethyl-benzenesulfonamide]
[1]
  IC50: 430 nM
[2]
  IC50: 5280 nM

## COc1cc(NCCC(=O)N2CCC(N(C(C)C)S(=O)(=O)c3cccc(C(F)(F)F)c3)CC2)cc(OC)c1 [N-{1-[3-(3,5-dimethoxy-phenylamino)-propionyl]-piperidin-4-yl}-N-isopropyl-3-trifluoromethyl-benzenesulfonamide]
[1]
  IC50: 820 nM
[2]
  IC50: > 20000 nM

## CC(C)N(C1CCN(C(=O)CCNc2cccc(OC(F)(F)F)c2)CC1)S(=O)(=O)c1cccc(C(F)(F)F)c1 [N-isopropyl-N-{1-[3-(3-trifluoromethoxy-phenylamino)-propionyl]-piperidin-4-yl}-3-trifluoromethyl-benzenesulfonamide]
[1]
  IC50: 770 nM
[2]
  IC50: > 20000 nM

## CC(C)N(C1CCN(CC(=O)N(c2ccc(F)cc2)c2ccc(F)cc2)CC1)S(=O)(=O)c1cccc(C(F)(F)F)c1 [Compound 84, N,N-Bis-(4-fluorophenyl)-2-{4-[isopropyl-(3-trifluoromethyl-benzenesulfonyl)amino]-piperidin-1-yl}-acetamide]
[1]
  IC50: 320 nM
[2]
  IC50: > 20000 nM

## Cc1ccccc1NC(=O)CN1CCC(N(C(C)C)S(=O)(=O)c2cccc(C(F)(F)F)c2)CC1 [Compound 42b, 2-{4-[Isopropyl-(3-trifluoromethylbenzenesulfonyl)amino]-piperidin-1-yl}-N-o-tolyl-acetamide]
[1]
  IC50: 460 nM
[2]
  IC50: 3230 nM

## CC(C)N(C1CCN(CC(=O)NCc2ccc(F)cc2)CC1)S(=O)(=O)c1cccc(C(F)(F)F)c1 [Compound 42k, N-(4-Fluorobenzyl)-2-{4-[isopropyl-(3-trifluoromethylbenzenesulfonyl)amino]-piperidin-1-yl}-acetamide]
[1]
  IC50: 330 nM
[2]
  IC50: 4160 nM

## COc1ccc(OC)c(NCCC(=O)N2CCC(N(C(C)C)S(=O)(=O)c3cccc(C(F)(F)F)c3)CC2)c1 [N-{1-[3-(2,5-dimethoxy-phenylamino)-propionyl]-piperidin-4-yl}-N-isopropyl-3-trifluoromethyl-benzenesulfonamide]
[1]
  IC50: 750 nM
[2]
  IC50: > 20000 nM

## CC(C)N(C1CCN(C(=O)CCNc2ccc(F)c(F)c2)CC1)S(=O)(=O)c1cccc(C(F)(F)F)c1 [N-{1-[3-(3,4-difluoro-phenylamino)-propionyl]-piperidin-4-yl}-N-isopropyl-3-trifluoromethyl-benzenesulfonamide]
[1]
  IC50: 390 nM
[2]
  IC50: > 20000 nM

## CC(C)N(C1CCN(C(=O)CCNc2ccc(Cl)cc2)CC1)S(=O)(=O)c1cccc(C(F)(F)F)c1 [N-{1-[3-(4-chloro-phenylamino)-propionyl]-piperidin-4-yl}-N-isopropyl-3-trifluoromethyl-benzenesulfonamide]
[1]
  IC50: 930 nM
[2]
  IC50: > 20000 nM

## CC(C)N(C1CCN(CCC(=O)Nc2ccc(F)cc2)CC1)S(=O)(=O)c1cccc(C(F)(F)F)c1 [Compound 107a, N-(4-Fluorophenyl)-3-{4-[isopropyl-(3-trifluoromethylbenzenesulfonyl)amino]-piperidin-1-yl}-propionamide]
[1]
  IC50: 570 nM
[2]
  IC50: 9750 nM

## COc1ccc(CNCC(=O)N2CCC(N(C3CC3)S(=O)(=O)c3ccc(Cl)cc3)CC2)cc1 [Compound 100, 4-Chloro-N-cyclopropyl-N-{1-[2-(4-methoxybenzylamino)acetyl]-piperidin-4-yl}-benzenesulfonamide]
[1]
  IC50: 660 nM
[2]
  IC50: 10000 to 20000 nM

## N#Cc1cc(F)cc(NC(=O)CN2CCC(N(C3CC3)S(=O)(=O)c3cccc(C(F)(F)F)c3)CC2)c1 [Compound 81, N-(3-Cyano-5-fluorophenyl)-2-{4-[cyclopropyl-(3-trifluoromethyl-benzenesulfonyl)amino]-piperidin-1-yl}-acetamide]
[1]
  IC50: 360 nM
[2]
  IC50: > 20000 nM

## CC(C)N(C1CCN(CC(=O)Nc2ccc(C(F)(F)F)cn2)CC1)S(=O)(=O)c1cccc(C(F)(F)F)c1 [Compound 42m, 2-{4-[Isopropyl-(3-trifluoromethylbenzenesulfonyl)amino]-piperidin-1-yl}-N-(5-trifluoromethylpyridin-2-yl)-acetamide]
[1]
  IC50: 410 nM
[2]
  IC50: > 20000 nM

## CC(C)CC(CC(=O)N1CCC(N(C(C)C)S(=O)(=O)c2cccc(C(F)(F)F)c2)CC1)NCCOCc1ccccc1 (stereo not shown) [N-{1-[3-(2-benzyloxy-ethylamino)-5-methyl-hexanoyl]-piperidin-4-yl}-N-isopropyl-3-trifluoromethyl-benzenesulfonamide]
[1]
  IC50: 220 nM
[2]
  IC50: 4480 nM

## COc1cc(NCCC(=O)N2CCC(N(C(C)C)S(=O)(=O)c3cccc(C(F)(F)F)c3)CC2)ccc1F [N-{1-[3-(4-fluoro-3-methoxy-phenylamino)-propionyl]-piperidin-4-yl}-N-isopropyl-3-trifluoromethyl-benzenesulfonamide]
[1]
  IC50: 620 nM
[2]
  IC50: > 20000 nM

## O=C(CN1CCC(N(C2CC2)S(=O)(=O)c2cccc(C(F)(F)F)c2)CC1)NCc1cc(C(F)(F)F)cc(C(F)(F)F)c1 [Compound 64, N-(3,5-Bis-trifluoromethylbenzyl)-2-{4-[cyclopropyl-(3-trifluoromethylbenzenesulfonyl)amino]-piperidin-1-yl}-acetamide]
[1]
  IC50: 220 nM
[2]
  IC50: > 20000 nM

## CC(C)N(C1CCN(C(=O)CCNc2ccc(F)cc2Cl)CC1)S(=O)(=O)c1cccc(C(F)(F)F)c1 [N-{1-[3-(2-chloro-4-fluoro-phenylamino)-propionyl]-piperidin-4-yl}-N-isopropyl-3-trifluoromethyl-benzenesulfonamide]
[1]
  IC50: 820 nM
[2]
  IC50: > 20000 nM

## CC(C)c1ccc(NC(=O)CN2CCC(N(C3CC3)S(=O)(=O)c3cccc(C(F)(F)F)c3)CC2)cc1 [Compound 59, 2-{4-[Cyclopropyl-(3-trifluoromethylbenzenesulfonyl)-amino]-piperidin-1-yl}-N-(4-isopropylphenyl)acetamide]
[1]
  IC50: 420 nM
[2]
  IC50: 10000 to 20000 nM

## O=C(CN1CCC(N(C2CC2)S(=O)(=O)c2cccc(C(F)(F)F)c2)CC1)Nc1ccccc1 [Compound 57, 2-{4-[Cyclopropyl-(3-trifluoromethylbenzenesulfonyl)-amino]-piperidin-1-yl}-N-phenyl-acetamide]
[1]
  IC50: 530 nM
[2]
  IC50: > 20000 nM

Source: patent US8791264B2 (Purdue Pharma L.P., priority 2006, dated 2014)
